According to article PMC5077990, “P53 activation inhibits all types of hematopoietic progenitors and all stages of megakaryopoiesis” (Oncotarget, 2016):
“Also recorded” adds a separate entry of the source.

What was measured:
Type in all cases: cell-based, human
[1] = system: p53 pathway in megakaryocytes (MKs); assay: p53 pathway proteins and transcripts in MKs (western-blot, qRT-PCR); settings: day 11-MKs, 1 μM, 24 hours (legend: 5 μM), compared to 1 μM MI-219 or untreated control
Description: (§1) We also explored the effects of p53 stabilization at a later stage of megakaryocytic differentiation. […] Day 7-MKs were treated with 5 μM Nutlin 3a for 24 or 48 hours, which led to an increase in p53, p21, BAX, BCL2 and BCL-XL levels, confirming a functional p53 activity (Figure 6A). […] Similar results were found with day 6-megakaryoblasts treated with two doses of SAR405838 for 72 hours (Figure 6D/6E) without any major effect on the percentage of CD41^+ cells (Figure 6F). […] As shown in Figure 6D/6E, at the dose of 0.5 μM the SAR405838 induced a 50% decreased in the number of viable cells while the apoptotic cells reached 50% of the total cells. We checked if the effect of SAR405838 on MKs could be reverted by the addition of high TPO doses. CD34^+ progenitors were cultured in serum-free medium supplemented with SCF and low dose of TPO (1 ng/mL) for 6 days. Day 6-megakaryoblasts were then treated with 1.5 μM of SAR405838 for 48 hours and various doses of TPO.
(§2) In parallel, the expression of P53, BAK, BCL2L1, NOXA, PUMA, BAX, P21 and P53 were quantified by qRT-PCR related to HPRT. C. […] (n=3). […]
PCRs were carried out in the ABI Prism GeneAmp 5700 (Perkin-Elmer) using the Power SYBR-Green PCR Master Mix (ABI) containing the specific primers. The expression levels of all genes were calculated relatively to HPRT or to PPIA housekeeping gene.
Proteins were quantified by Image J software.

[2] = system: day 10-MKs (proplatelet formation); assay: Proplatelet formation assay
Description: Then, we explored the effects of p53 stabilization on PPT formation (the step before platelet release). […] To confirm that this was due to p53 stabilization, we knocked-down p53 with 2 shRNA showing a decrease in P53 RNA and protein levels (Figure 7B/7C) and reduced expression of p53 targets (Figure 7D).
Figure 7 Effects of p53 stabilization on PPT formation A. Percentage of proplatelet-forming day 10-MKs after incubation with 0.5 or 1 μM of SAR405838 or MI-219. […] A total of 200 cells per well were counted during 4 days. Error bars in histograms represent the SD of one representative experiment performed in triplicate wells. Similar results were obtained in 3 repeated experiments. * represents statistical significance (**P<0.01). […] D. p53, MDM2, BCL-XL, BAX and p21 protein levels were analyzed in GFP^+/CD41^+ sorted cells by Western blot (at days 10 and 13 of culture). β-actin was used as loading control. […] A total of 200 cells per well were counted during 4 days (from day 11 to day 14). […]
CD41^+GFP^+ MKs were sorted at day 8 of culture and plated in 96-well plates at a concentration of 2,000 cells/well in serum-free medium containing TPO, and quantification of PPT bearing MKs was performed as previously described. […] A total of 200 cells per well were counted during 4 days. […]

[3] = system: megakaryoblasts / MKs; assay: Apoptosis of megakaryoblasts/MKs, Annexin V flow cytometry; settings: day 6-megakaryoblasts
Description: as §1, §2
Apoptosis was measured by Annexin V-FITC detection kit (BD Pharmigen, San Diego, CA) and analyzed by flow cytometry on a LSRII (Becton Dickinson Mountain View, CA).

CC(C)(C)C[C@@H]1N[C@@H](C(=O)N[C@H]2CC[C@H](O)CC2)[C@H](c2cccc(Cl)c2F)[C@]12C(=O)Nc1cc(Cl)ccc12 [SAR405838]
P21, BAX, PUMA and BCL2L1 transcripts (qRT-PCR related to HPRT) [1]: significant increase | PPT (proplatelet) formation ([2]; 0.5 μM): inhibited; also recorded: drastically decreased | PPT (proplatelet) formation ([2]; 1 μM): completely abrogated; also recorded: completely abolished | apoptotic cells, of the total cells ([3]; 0.5 μM, 72 hours): 50% | reversal of compound-mediated MK apoptosis by increasing doses of TPO ([3]; 1.5 μM for 48 hours, various doses of TPO): unable to revert
